Reference: the supplement of paper PMC10307832

What was measured:
Experiment in all cases: relative viability (nuclei count vs DMSO), 5 days (fraction); higher = more cells survive
[1] = compound: C1CNCCC1C2=CC(=NN2)C3=CC=NC=C3 + COc1cc2c(Oc3ccc(NC(=O)C4(C(=O)Nc5ccc(F)cc5)CC4)cc3F)ccnc2cc1OCCCN1CCOCC1 [Foretinib] (partner 0.25 µM)
Summary of the method: (§1)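 Lung cancer cell lines in 1536-well plates got either a single drug or a fixed anchor-drug dose together with five library-drug doses (not always all listed) in √10 steps, by pin tool, on the day after seeding. Nuclei were counted after 5 days, and relative viability is the treated-to-vehicle ratio of nuclei counts. Values are medians of duplicate plates.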

[2] = compound: C1CNCCC1C2=CC(=NN2)C3=CC=NC=C3 + C[C@]1(O)C[C@@H](c2nc(-c3ccc4ccc(-c5ccccc5)nc4c3)c3c(N)nccn32)C1 [Linsitinib] (partner 1 µM)
Summary of the method: as §1

Tanzisertib + Linsitinib = compound: O[C@H]1CC[C@H](Nc2ncc3nc(Nc4c(F)cc(F)cc4F)n([C@H]4CCOC4)c3n2)CC1 [Tanzisertib] + C[C@]1(O)C[C@@H](c2nc(-c3ccc4ccc(-c5ccccc5)nc4c3)c3c(N)nccn32)C1 [Linsitinib] (partner 1 µM)
Summary of the method: as §1

Tanzisertib + Tozasertib = compound: O[C@H]1CC[C@H](Nc2ncc3nc(Nc4c(F)cc(F)cc4F)n([C@H]4CCOC4)c3n2)CC1 [Tanzisertib] + Cc1cc(Nc2cc(N3CCN(C)CC3)nc(Sc3ccc(NC(=O)C4CC4)cc3)n2)n[nH]1 [Tozasertib] (partner 0.1 µM)
Summary of the method: as §1

| Cell Line | relative viability ([1]; first compound 0.08 µM) | relative viability ([1]; first compound 0.8 µM) | relative viability ([1]; first compound 2.53 µM) | relative viability ([1]; first compound 8 µM) | relative viability ([2]; first compound 0.08 µM) | relative viability ([2]; first compound 0.8 µM) | relative viability ([2]; first compound 2.53 µM) | relative viability ([2]; first compound 8 µM) | relative viability (Tanzisertib + Linsitinib; first compound 0.08 µM) | relative viability (Tanzisertib + Linsitinib; first compound 0.253 µM) | relative viability (Tanzisertib + Linsitinib; first compound 0.8 µM) | relative viability (Tanzisertib + Linsitinib; first compound 2.53 µM) | relative viability (Tanzisertib + Linsitinib; first compound 8 µM) | relative viability (Tanzisertib + Tozasertib; first compound 0.08 µM) | relative viability (Tanzisertib + Tozasertib; first compound 0.253 µM) | relative viability (Tanzisertib + Tozasertib; first compound 0.8 µM) | relative viability (Tanzisertib + Tozasertib; first compound 2.53 µM) | relative viability (Tanzisertib + Tozasertib; first compound 8 µM) |
| --- | --- | --- | --- | --- | --- | --- | --- | --- | --- | --- | --- | --- | --- | --- | --- | --- | --- | --- |
| NCI-H1793 | 0.619 | 0.659 | 0.72 | 0.654 | 0.67 | 0.669 | 0.922 | 0.876 | 1.04 | 0.686 | 0.972 | 0.884 | 0.816 | 0.289 | 0.287 | 0.303 | 0.246 | 0.223 |
| NCI-H1915 | 1.07 | 1.13 | 1.06 | 1.09 | 1.05 | 1.14 | 1.1 | 1.11 | 1.07 | 1.14 | 1.08 | 1.01 | 1.11 | 0.401 | 0.457 | 0.373 | 0.384 | 0.322 |
| NCI-H1944 | 0.845 | 0.884 | 0.997 | 0.839 | 1.14 | 1.08 | 1.25 | 1.1 | 1.25 | 1.18 | 1.12 | 1.12 | 0.878 | 0.289 | 0.25 | 0.237 | 0.223 | 0.242 |
| NCI-H1975 | 1.07 | 1.03 | 0.962 | 0.932 | 0.952 | 1.14 | 0.917 | 0.97 | 1.1 | 0.979 | 0.993 | 1.07 | 0.873 | 0.845 | 0.762 | 0.838 | 0.668 | 0.458 |
| NCI-H1993 | 0.857 | 0.744 | 0.887 | 0.808 | 0.748 | 0.67 | 0.732 | 0.798 | 0.759 | 0.681 | 0.754 | 0.768 | 0.677 | 0.614 | 0.593 | 0.592 | 0.617 | 0.548 |
| NCI-H2009 | 1.2 | 1.19 | 1.17 | 1.19 | 1.2 | 1.18 | 1.25 | 1.22 | 1.22 | 1.17 | 1.17 | 1.26 | 1.21 | 0.804 | 0.72 | 0.775 | 0.754 | 0.661 |
| NCI-H2023 | 0.789 | 0.803 | 1.16 | 1.11 | 0.62 | 0.671 | 0.629 | 0.647 | 0.702 | 0.589 | 0.759 | 0.621 | 0.56 | 0.479 | 0.431 | 0.409 | 0.321 | 0.2 |
| NCI-H2085 | 1.02 | 0.698 | 0.916 | 0.901 | 0.975 | 0.732 | 1.1 | 0.95 | 1.03 | 0.808 | 0.905 | 0.826 | 0.83 | 0.9 | 0.822 | 0.914 | 0.644 | 0.59 |
| NCI-H2087 | 0.982 | 1.19 | 1.05 | 1.1 | 1.04 | 1.09 | 0.973 | 0.96 | 1.12 | 1.07 | 0.98 | 1.24 | 0.957 | 0.238 | 0.287 | 0.277 | 0.209 | 0.202 |
| NCI-H2126 | 1.18 | 1.31 | 1.23 | 1.29 | 0.718 | 0.636 | 0.789 | 0.748 | 0.814 | 0.77 | 0.712 | 0.726 | 0.736 | 0.91 | 0.872 | 0.85 | 0.813 | 0.859 |
| NCI-H2228 | 0.871 | 0.929 | 0.939 | 0.911 | 0.734 | 0.869 | 0.503 | 0.811 | 0.877 | 0.691 | 0.573 | 0.553 | 0.509 | 0.333 | 0.385 | 0.241 | 0.254 | 0.238 |
| NCI-H2347 | 1.21 | 0.742 | 0.805 | 1.25 | 0.916 | 0.961 | 1.06 | 0.936 | 1.08 | 0.973 | 1.08 | 1.09 | 1.3 | 0.569 |  | 0.664 | 0.682 | 0.365 |
| NCI-H2405 | 1.05 | 1.04 | 1.11 | 1.05 | 0.979 | 0.771 | 1.07 | 0.913 | 0.954 | 0.881 | 0.968 | 0.904 | 0.702 | 0.784 | 0.744 | 0.844 | 0.823 | 0.73 |
| NCI-H3122 | 1.01 | 0.935 | 0.942 | 1.01 | 0.981 | 0.981 | 1.06 | 1.04 | 1.03 | 1.05 | 1.09 | 0.898 | 1.03 | 0.465 | 0.393 | 0.497 | 0.399 | 0.377 |
| PC-3 [JPC-3] | 1.01 | 1.07 | 1.1 | 1.04 | 0.913 | 0.975 | 0.936 | 0.896 | 1.05 | 0.957 | 0.963 | 0.963 | 0.899 | 0.903 | 0.99 | 0.943 | 0.852 | 0.781 |
| PC-14 | 0.942 | 1.03 | 1.01 | 0.942 | 0.997 | 0.992 | 1.03 | 0.941 | 1 | 0.987 | 0.885 | 0.942 | 0.572 | 0.652 | 0.605 | 0.54 | 0.537 | 0.499 |
| RERF-LC-KJ | 0.871 | 0.942 | 0.837 | 0.924 | 0.925 | 0.931 | 0.903 | 0.903 | 0.942 | 0.834 | 0.971 | 0.862 | 0.877 | 0.386 | 0.554 | 0.61 | 0.383 | 0.442 |
| SK-LU-1 | 0.813 | 0.946 | 0.951 | 0.885 | 1.05 | 1.07 | 1.19 | 1.23 | 1.16 | 1.15 | 1.14 | 1.17 | 1.23 | 0.33 | 0.316 | 0.263 | 0.309 | 0.319 |
